Assay results: publication PMC7217817 (Clinical Pharmacokinetics, 2019)
Like-named read-outs stand apart in the source and are kept apart here.

Key:
P-gp [1] = conditions: cited from earlier work; for Mean AUC∞ ratio of victim drug / Mean Cmax ratio of victim drug: Observed
CYP3A = conditions: cited from earlier work
P-gp [2] = target: T1, P-gp (Homo sapiens, UniProt P08183); conditions: in vitro and clinical studies; cited from earlier work
[3] = cited from earlier work
P-gp [4] = target: T1, P-gp; assay: P-gp inhibition; type: in vitro ADME; conditions: following administration of 150 or 200 mg of elagolix
[5] = Child–Pugh A patients compared with healthy volunteers; cited from earlier work
[6] = Clinical multiple-dose pharmacokinetics of elagolix in healthy subjects; type: in vivo, human; conditions: for AUCτ / CL/F / Cmax: healthy subjects
[7] = single-dose elagolix 150 mg with ketoconazole 400 mg, Observed; cited from earlier work
[8] = digoxin day 1 with elagolix 200 mg BID
[9] = digoxin day 10 with elagolix 200 mg BID
[10] = midazolam with elagolix 150 mg QD, Observed
[11] = 150 mg QD (N = 6), Day 21, Observed
[12] = 200 mg BID (N = 7), Day 21, Observed

T1 sequence (P08183 whole entry): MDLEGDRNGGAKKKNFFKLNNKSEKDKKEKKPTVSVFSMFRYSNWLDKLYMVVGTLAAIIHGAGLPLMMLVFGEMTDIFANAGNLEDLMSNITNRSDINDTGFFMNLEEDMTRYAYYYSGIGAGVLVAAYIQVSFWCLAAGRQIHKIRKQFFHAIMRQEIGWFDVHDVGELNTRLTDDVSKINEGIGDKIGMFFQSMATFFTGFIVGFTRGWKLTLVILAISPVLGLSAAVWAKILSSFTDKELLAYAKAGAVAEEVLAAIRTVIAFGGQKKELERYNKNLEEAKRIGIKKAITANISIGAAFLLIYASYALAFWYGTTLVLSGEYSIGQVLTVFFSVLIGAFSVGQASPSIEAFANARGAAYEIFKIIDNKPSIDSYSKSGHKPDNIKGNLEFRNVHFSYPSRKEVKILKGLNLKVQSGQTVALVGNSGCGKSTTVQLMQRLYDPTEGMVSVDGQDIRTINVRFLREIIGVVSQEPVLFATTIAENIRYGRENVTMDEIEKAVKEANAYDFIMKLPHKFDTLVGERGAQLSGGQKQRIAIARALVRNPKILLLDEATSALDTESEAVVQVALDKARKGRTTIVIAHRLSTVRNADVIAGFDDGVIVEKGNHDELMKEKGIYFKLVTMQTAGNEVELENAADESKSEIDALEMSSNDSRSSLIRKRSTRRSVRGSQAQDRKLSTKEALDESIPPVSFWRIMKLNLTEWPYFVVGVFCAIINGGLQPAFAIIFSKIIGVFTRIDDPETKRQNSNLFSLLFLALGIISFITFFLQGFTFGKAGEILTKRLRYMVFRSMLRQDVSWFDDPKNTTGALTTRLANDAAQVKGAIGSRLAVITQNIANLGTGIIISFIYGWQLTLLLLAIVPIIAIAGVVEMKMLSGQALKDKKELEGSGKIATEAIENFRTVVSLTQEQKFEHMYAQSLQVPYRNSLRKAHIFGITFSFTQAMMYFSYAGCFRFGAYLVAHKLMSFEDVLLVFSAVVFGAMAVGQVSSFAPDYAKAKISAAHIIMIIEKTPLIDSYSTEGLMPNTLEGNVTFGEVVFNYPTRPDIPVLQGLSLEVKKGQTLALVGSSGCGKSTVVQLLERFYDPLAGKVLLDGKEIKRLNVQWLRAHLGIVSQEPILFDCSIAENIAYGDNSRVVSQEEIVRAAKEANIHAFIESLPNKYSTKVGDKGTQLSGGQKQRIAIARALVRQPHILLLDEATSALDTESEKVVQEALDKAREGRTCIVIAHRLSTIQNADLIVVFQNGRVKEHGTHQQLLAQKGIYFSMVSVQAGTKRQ

## C[C@H]1O[C@@H](O[C@H]2[C@@H](O)C[C@H](O[C@H]3[C@@H](O)C[C@H](O[C@H]4CC[C@@]5(C)[C@H](CC[C@@H]6[C@@H]5C[C@@H](O)[C@]5(C)[C@@H](C7=CC(=O)OC7)CC[C@]65O)C4)O[C@@H]3C)O[C@@H]2C)C[C@H](O)[C@@H]1O [Digoxin, digoxin]
P-gp [1]; [8]
  Mean AUC∞ ratio of victim drug: 1.32
  Mean Cmax ratio of victim drug: 1.73
P-gp [1]; [9]
  Mean AUC∞ ratio of victim drug: 1.26
  Mean Cmax ratio of victim drug: 1.71
P-gp [1]; elagolix 200 mg BID, observed
  Increase in digoxin AUC: ~30%
  Increase in digoxin Cmax: approximately 70%

## Cc1ncc2n1-c1ccc(Cl)cc1C(c1ccccc1F)=NC2 [Midazolam, midazolam]
CYP3A; elagolix 150 mg QD, observed
  Decrease in midazolam AUC: 35%
CYP3A; [10]
  Mean AUC∞ ratio of victim drug: 0.65
  Mean Cmax ratio of victim drug: 0.81

## CO[C@H]1/C=C/O[C@@]2(C)Oc3c(C)c(O)c4c(O)c(c(/C=N/N5CCN(C)CC5)c(O)c4c3C2=O)NC(=O)/C(C)=C\C=C\[C@H](C)[C@H](O)[C@@H](C)[C@@H](O)[C@@H](C)[C@H](OC(C)=O)[C@@H]1C [Rifampin, rifampin]
P-gp [2]
  Induction of P-gp expression: four folds

## COc1cccc(-c2c(C)n(Cc3c(F)cccc3C(F)(F)F)c(=O)n(C[C@H](NCCCC(=O)O)c3ccccc3)c2=O)c1F [elagolix]
[3]; clinical doses of 150 mg QD and 200 mg BID
  Apparent terminal elimination half-life (t½): 4 to 6 h
[3]; oral administration
  Time of maximum plasma concentration (Cmax) after dosing: 1 h
P-gp [4]
  Ki for P-gp below predicted intestinal elagolix concentration in the gastrointestinal lumen: approximately 500 fold
[5]
  Impact of hepatic impairment on elagolix exposures: no impact
[6]; 150 mg QD (N = 6), Day 1, Observed
  AUCτ: 1331 ng●h/mL
[6]; [11]
  AUCτ: 1292 ng●h/mL
  CL/F: 123 L/h
[6]; 200 mg BID (N = 7), Day 1, Observed
  AUCτ: 1813 ng●h/mL
[6]; [12]
  AUCτ: 1725 ng●h/mL
  CL/F: 144 L/h
[6]; human, plasma, oral, 150 mg
  Tmax: 1.3 h
  half-life: 6.42 h
[6]; human, plasma, oral, 150 mg, 150 mg QD (N = 6), Day 1, Observed
  Cmax: 507 ng/mL
[6]; human, plasma, oral, 200 mg
  half-life: 4.29 h
[6]; human, plasma, oral, 200 mg, 200 mg BID (N = 7), Day 1, Observed
  Cmax: 712 ng/mL
[7]
  Mean Cmax ratio of elagolix: 1.77
